pIC50: −log10 of the molar value.
Legend:
[1] = system: guinea pig skin; experiment: UV-Erythema in Guinea Pigs; type: in vivo; design: key: +: active; -: inactive; conditions: topical, 50 μL of cream with 1.0 mg test article per 1 g, immediately after UV exposure; active = composite score significantly lower than control, Dunnett's t-test p≤0.05
Description: I. Preparation of Formulation (cream)
All drugs tested were prepared by thoroughly incorporating 1.0 mg of the test article into 1 g of a pH 7.0 cream vehicle of the following composition.
methyl glucose sesquistearate 1.6%
methyl gluceth-20 sesquistearate 2.4%
emulsifying wax, N.F. 5.0%
mineral oil (heavy), U.S.P. 1.0%
white petrolatum, U.S.P. 5.0%
stearic acid, U.S.P. 2.5%
sodium benzoate, N.F. 0.1%
magnesium aluminum silicate 1.5%
deionized water, pH 7.0 64.8%
The preparations were packed into 1-cc plastic syringes.
II. Pharmacological Assay
The backs of female, English short hair guinea pigs (250-500 g) were shaved and depilated with Nair®. Control and treated groups each consisted of 5 animals, and selection of the animals and the control and treatment groups was achieved by random procedures. A rubber sheet with three one-half inch holes spaced one-half inch apart was draped over backs of the guinea pigs. The guinea pigs were then exposed to ultraviolet (UV) light (Hanovia Model 10, ~650-800 μW/cm^2) for 15 seconds by holding the animals against the light source. Fifty μL of the test drug or reference drug (indomethacin or bromfenac) preparation were immediately rubbed onto the skin, either on the area exposed to UV light or to an area adjacent to the UV light exposed skin. The degree of erythema for each exposed area was scored at various times following exposure according to the following scale:
1=slight redness with faint outline
2=moderate to marked redness with distinct outline
The score was totaled for each guinea pig (maximum score is 6). The Dunnett's t-test was used to determine significant (p≤0.05) differences from the control (placebo treated) group.

[2] = biological target: T1, 5-lipoxygenase (Homo sapiens, UniProt P09917); experiment: 5-Lipoxygenase Assay (production of 5-HETE from arachidonic acid in polymorphonuclear leukocytes stimulated by A23187); type: cell-based; conditions: inhibition of production of 5-HETE, human PMN cells, calcium ionophore A23187, 37° C.
T1 construct: Polymorphonuclear leukocytes were obtained from whole human blood; endogenous in cells; host or cells: human polymorphonuclear leukocytes from whole blood, stimulated with A23187
T1 sequence (P09917 1-674): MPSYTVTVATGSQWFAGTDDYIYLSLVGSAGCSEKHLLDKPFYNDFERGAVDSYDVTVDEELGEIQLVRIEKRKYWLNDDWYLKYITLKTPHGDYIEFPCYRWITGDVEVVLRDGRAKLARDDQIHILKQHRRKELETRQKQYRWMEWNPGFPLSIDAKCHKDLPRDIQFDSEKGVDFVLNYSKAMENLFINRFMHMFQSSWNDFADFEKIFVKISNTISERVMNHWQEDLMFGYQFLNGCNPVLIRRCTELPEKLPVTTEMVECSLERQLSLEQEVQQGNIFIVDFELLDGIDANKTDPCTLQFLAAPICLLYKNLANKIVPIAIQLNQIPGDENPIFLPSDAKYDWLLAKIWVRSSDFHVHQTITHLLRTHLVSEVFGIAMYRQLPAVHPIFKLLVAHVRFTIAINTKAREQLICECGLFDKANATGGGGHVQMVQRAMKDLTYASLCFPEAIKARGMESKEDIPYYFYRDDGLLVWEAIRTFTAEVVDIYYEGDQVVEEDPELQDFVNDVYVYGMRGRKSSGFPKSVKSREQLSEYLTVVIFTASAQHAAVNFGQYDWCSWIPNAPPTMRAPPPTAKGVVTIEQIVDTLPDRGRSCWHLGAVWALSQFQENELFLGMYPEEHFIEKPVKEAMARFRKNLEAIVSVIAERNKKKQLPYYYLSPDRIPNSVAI
Description: The production of 5-HETE from arachidonic acid in human polymorphonuclear leukocytes stimulated by the calcium ionophore A23187 (Calbiochemicals) was measured by reverse phase high pressure liquid chromatography. This procedure is a modification of the procedure of Sun and McGuire, PROSTAGLANDINS, 26, 211-221 (1983). Addition of substances to the test system that inhibit 5-lipoxygenases cause a decrease in the production of 5-HETE and is thus determined in comparison to reference and control articles also added to the reaction system.
Polymorphonuclear leukocytes were obtained from whole human blood by the procedure of Skoog and Beck, BLOOD, 11, 436-454 (1956). […] The tube is incubated for an additional 10 min at 37° C. and the incubations terminated by addition of 1.5 mL of acetone and cooling to 0° C. 13-Hydroxyoctadecatrienoic acid (13-HODT) (5 μL of 0.2 mM methanolic solution) is added for an internal reference standard. The tube is stored at -20° C. under argon for 4-18 hr. Centrifugation at 1000×g for 10 min causes protein precipitate to form a pellet. The acetone layer is evaporated under a stream of nitrogen and the resultant lipid residue containing the arachidonic acid metabolites and 13-HODT is dissolved in 0.5 mL of methanol and stored at -20° C. until analyzed by high-pressure liquid chromatography (HPLC).
For analysis, a 150-μL aliquot of the methanol solution is evaporated under a stream of argon. The residue is reconstituted with 100 μL of a 1:1 methanol-water mixture and sonified for 15-20 seconds and the mixture analyzed by HPLC (C18 reversed phase Econophere column, methanol:water:acetic acid 79:25:0.2 v/v/v used for elution). Test, reference, and control articles are evaluated in duplicate. The inhibition is reported as that concentration which will inhibit by 50% the production of 5-HETE.

| SMILES | pIC50 [2] | U.V. erythema (+ = active, - = inactive) [1] |
| --- | --- | --- |
| CCCCC1SC(c2cccc(C(=O)c3ccccc3)c2)N(CCCCc2ccccc2)C1=O (centres unmarked) [Example 8, 2-(3-Benzoylphenyl)-5-butyl-3-(4-phenylbutyl)-4-thiazolidinone] | ~4.00 | + |
| CCCCC1SC(c2cccc(Oc3ccccc3)c2)N(CCCCC(=O)O)C1=O (centres unmarked) [Example 45, 5-Butyl-4-oxo-2-(3-phenoxyphenyl)-3-thiazolidinepentanoic acid] | ~4.82 | + |
| CCCC[C@@H]1S[C@H](c2cccc(Oc3ccccc3)c2)N(CCCCCC(=O)OCC)C1=O (relative stereo) [Example 51] | ~4.82 | - |
| CCCC[C@@H]1S[C@@H](c2cccc(Oc3ccccc3)c2)NC1=O (relative stereo) [Example 83, 5-Butyl-2-(3-phenoxyphenyl)-4-thiazolidinone] | > 5.00 | - |

Second part, led by results:

| pIC50 [2] | SMILES | U.V. erythema (+ = active, - = inactive) [1] |
| --- | --- | --- |
| 5.00 | CCCCC1SC(c2cccc(Oc3ccccc3)c2)N(CCc2ccccc2)C1=O (centres unmarked) [Example 17, 5-Butyl-2-(3-phenoxyphenyl)-3-(2-phenylethyl)-4-thiazolidinone] | - |
| > 4.70 | CC1SC(c2cccc(Oc3ccccc3)c2)N(CCCCc2ccccc2)C1=O (centres unmarked) [Example 7, 5-Methyl-2-(3-phenoxyphenyl)-3-(4-phenylbutyl)-4-thiazolidinone] | + |
| < 4.00 | CCCCC1SC(c2cccc(Oc3ccccc3)c2)N(CCCCc2ccccc2)C1=O (centres unmarked) [Example 1, 5-Butyl-2-(3-phenoxyphenyl)-3-(4-phenylbutyl)-4-thiazolidinone] | + |

Source: patent US5061720A, “Substituted-4-thiazolidinone derivatives” (A. H. Robins Company, Inc., priority 1989, dated 1991)
